Measurements taken from patent US20250075179A1, “METHODS FOR INCREASING VIRAL TRANSDUCTION OF CELLS” (Trustees of Dartmouth College, priority 2021, published 2025).

Key:
Type in all cases: cell-based
human naïve B cells [1] = assay: Antibody class switching of naïve B cells after statin treatment, flow cytometry on Day 14; conditions: 5 μM Rosuvastatin 48 hours, then culture to Day 14, versus PBS control, FIG. 3
Description: As noted above, statins and other agents should not substantially reduce target cell activity and function. One function of naïve B cells is the ability to engage in antibody class switching. […] Specifically, human naïve B cells were isolated and cultured as described above in Example 1. Cells were plated at a density of 1×10^5 cells B cells per 6 well with 1×10^4 feeder cells plated the previous day. The dual culture was grown in the media and cytokine mix described above with or without 5 μM Rosuvastatin. After 48 hours of treatment, media was changed and cells were allowed to continue growing in the media and fresh cytokines. Every 3-4 days half of the media was removed and replaced with fresh media and cytokines at 1× concentration. Cells were trypsinized and split 1:5 at day 7. Subclass of expressed antibody was assessed by flow cytometry on Day 14.

human naïve B cells [2] = assay: LDL-R antibody enhancement of lentiviral transduction of B cells in feeder culture, GFP by flow cytometry; conditions: 48 hour 5 μM Rosuvastatin
human naïve B cells [3] = test system: human naïve B cells

Question: CC(C)c1nc(N(C)S(C)(=O)=O)nc(-c2ccc(F)cc2)c1/C=C/[C@@H](O)C[C@@H](O)CC(=O)O [rosuvastatin] was tested. Which “percent of B cells expressing the measured subclasses of antibody (class switching)” value (human naïve B cells [1]) did it give?
Answer: did not alter

Question: And the “Median Fluorescence Intensity” value (human naïve B cells [2]; GFP+ virus, feeder culture + 250 ng/ml IL-2, no LDL-R antibody)?
Answer: 9.5

Question: What about the “Median Fluorescence Intensity” value (human naïve B cells [2]; GFP+ virus, feeder culture + 250 ng/ml IL-2, with anti-mouse LDL-R antibody 2 μg/mL) of the same compound?
Answer: 10

Question: And the “Median Fluorescence Intensity” value (human naïve B cells [2]; GFP− virus (control virus), feeder culture + 250 ng/ml IL-2, no LDL-R antibody)?
Answer: 3

Question: What about the “B cell transduction percentage, some replicates” value (human naïve B cells [3]) of the same compound?
Answer: exceeding 90%

Question: And the “GFP expression compared to B cells not treated with the statin or not transduced” value (human naïve B cells [3])?
Answer: substantially higher

Question: What about the “average B cell transduction percentage as measured by GFP expression, between technical replicates” value (human naïve B cells [3]) of the same compound?
Answer: 80%

Question: What about the “transduction relative to B cells not incubated with rosuvastatin” value (human naïve B cells [3]) of the same compound?
Answer: about 100 fold
